Ends that are not written are not given here. Peptide text beside a SMILES is read from it.
Experiments:
CRF2R = target: T1, CRF2R (Homo sapiens, UniProt Q13324); assay: CRF2R agonist activity (EC50 and Emax), called comparative CRF binding; type: cell-based; conditions: CRF2R; for EC50: read-out: CRF2R EC50
T1 sequence (Q13324 1-411): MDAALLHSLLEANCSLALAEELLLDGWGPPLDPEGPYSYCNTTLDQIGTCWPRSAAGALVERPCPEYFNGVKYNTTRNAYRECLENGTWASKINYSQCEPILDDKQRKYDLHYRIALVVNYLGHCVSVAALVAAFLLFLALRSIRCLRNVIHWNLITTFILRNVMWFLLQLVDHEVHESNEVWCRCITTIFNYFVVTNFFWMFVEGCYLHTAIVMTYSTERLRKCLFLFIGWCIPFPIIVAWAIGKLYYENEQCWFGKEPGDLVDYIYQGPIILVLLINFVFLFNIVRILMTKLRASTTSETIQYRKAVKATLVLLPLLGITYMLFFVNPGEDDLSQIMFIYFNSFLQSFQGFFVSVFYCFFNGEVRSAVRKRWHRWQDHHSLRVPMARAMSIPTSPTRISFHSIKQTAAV
From the text: (§1) The pharmacological activity and selectivity of the peptides of present invention can be determined using published test procedures. See, e.g, U.S. patent application Ser. No. 09/799,978. Because CRF2R and CRF1R are homologous proteins, it is expected that a certain proportion of agonists for CRF2R will also function as agonists of CRF1R. As discussed above, activation of CRF1R induces activation of the HPA axis since increased corticosteroid production leads to skeletal muscle atrophy. In most cases in which an increase in muscle mass or function is desired, it is not desirable to activate the HPA axis.
(§2) Because it is desirable to discriminate binding between CRF2R, as compared with CRF1R, the assays described above may be conducted using a cell, or membrane from a cell, which expresses only CRF2R or the assays can be conducted with a recombinant source of CRF2R. Cells expressing both forms of CRFR may be modified using homologous recombination to inactivate or otherwise disable the CRF1R gene. Alternatively, if the source of CRFR contains more than one CRFR type, the background signal produced by the receptor which is not of interest must be subtracted from the signal obtained in the assay. […] Known antagonists of CRFRs include, but are not limited to, antalarmin (CRF1R selective), antisauvagine-30 (CRF2R selective) and astressin (nonselective for CRF1R/CRF2R).
(§3) Cell-based assays include the steps of contacting cells which express CRF1R or CRF2R with a peptide of the present invention or control and measuring activation of the CRFR by measuring the expression or activity of components of the CRFR signal transduction pathways.
(§4) For example, after contact with a peptide of the present invention, lysates of the cells can be prepared and assayed for induction of cAMP. cAMP is induced in response to Gαs activation. Because Gαs is activated by receptors other than CRFR and because a test peptide may be exerting its effect through CRFRs or by another mechanism, two control comparisons are relevant for determining whether the peptide increases levels of cAMP via activation of a CRFR. One control compares the cAMP level of cells contacted with the peptide and the cAMP level of cells contacted with a control compound (i.e., the vehicle in which the peptide is dissolved).
(§5) In one example, cAMP induction is measured with the use of DNA constructs containing the cAMP responsive element linked to any of a variety of reporter genes can be introduced into cells expressing CRFRs. Such reporter genes include, but are not limited to, chloramphenicol acetyltransferase (CAT), luciferase, glucuronide synthetase, growth hormone, fluorescent proteins (e.g., Green Fluorescent Protein), or alkaline phosphatase. Following exposure of the cells to the peptide, the level of reporter gene expression can be quantitated to determine the peptide's ability to increase cAMP levels and thus determine the peptide's ability to activate the CRFR.
(§6) In addition to using cells expressing full length CRFRs, cells can be engineered which express CRFRs containing the ligand binding domain of the receptor coupled to, or physically modified to contain, reporter elements or to interact with signaling proteins. For example, a wild type CRFR or CRFR fragment can be fused to a G-protein resulting in activation of the fused G-protein upon agonist binding to the CRFR portion of the fusion protein. […] In addition, alternative pathways for induction of the CRE reporter could be eliminated to reduce basal levels.

CRF1R = target: T2, CRF1R (Homo sapiens, UniProt P34998); assay: CRF1R agonist activity (EC50 and Emax), called comparative CRF binding; type: cell-based; conditions: CRF1R; for EC50: read-out: CRF1R EC50
T2 sequence (P34998 24-415): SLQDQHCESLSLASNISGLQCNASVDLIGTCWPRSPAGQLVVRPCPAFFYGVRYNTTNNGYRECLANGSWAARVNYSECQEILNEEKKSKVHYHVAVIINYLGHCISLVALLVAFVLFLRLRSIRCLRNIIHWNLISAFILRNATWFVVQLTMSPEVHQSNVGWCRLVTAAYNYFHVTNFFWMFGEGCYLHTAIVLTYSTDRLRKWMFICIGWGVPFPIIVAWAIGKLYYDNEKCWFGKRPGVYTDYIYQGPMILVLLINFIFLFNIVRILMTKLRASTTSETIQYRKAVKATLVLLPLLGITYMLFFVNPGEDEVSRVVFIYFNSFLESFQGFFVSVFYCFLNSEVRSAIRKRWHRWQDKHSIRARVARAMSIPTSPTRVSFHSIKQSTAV
From the text: as §1, §2, §3, §4, §5, §6

| Compound | EC50 (CRF2R) [nM] | EC50 (CRF1R) [nM] | CRF2R (Emax %) (CRF2R; Emax) | CRF1R (Emax %) (CRF1R; Emax) |
| --- | --- | --- | --- | --- |
| CC[C@H](C)[C@H](NC(=O)[C@H](C)NC(=O)[C@H](CC(N)=O)NC(=O)[C@H](CCC(N)=O)NC(=O)[C@H](CCC(=O)O)NC(=O)[C@H](C)NC(=O)[C@H](CCCNC(=N)N)NC(=O)[C@H](CCC(=O)O)NC(=O)[C@H](CCCNC(=N)N)NC(=O)[C@H](CCC(N)=O)NC(=O)[C@H](CO)NC(=O)[C@H](CCC(N)=O)NC(=O)[C@@H](NC(=O)[C@H](CCCNC(=N)N)NC(=O)[C@H](C)NC(=O)[C@H](CC(C)C)NC(=O)[C@H](CCC(=O)O)NC(=O)[C@H](CC(C)C)NC(=O)[C@H](CC(C)C)NC(=O)[C@@H](NC(=O)[C@H](CCCNC(=N)N)NC(=O)[C@H](CC(C)C)NC(=O)[C@H](CC(C)C)NC(=O)[C@H](Cc1ccccc1)NC(=O)[C@H](Cc1ccccc1)NC(=O)[C@@H]1CCCN1C(=O)[C@H](CC(C)C)NC(=O)[C@H](CC(=O)O)NC(=O)[C@@H](NC(=O)[C@H](CO)NC(=O)[C@H](CC(C)C)NC(=O)[C@H](CO)NC(=O)[C@@H]1CCCN1C(=O)[C@H](CC(N)=O)NC(=O)[C@@H](N)CC(=O)O)[C@@H](C)CC)[C@@H](C)O)[C@@H](C)O)C(=O)N[C@H](C(=O)N[C@@H](Cc1ccccc1)C(=O)N[C@@H](C)C(=O)N[C@@H](CO)C(=O)N[C@H](C(N)=O)C(C)C)[C@@H](C)CC [compound 184] (H-DNPSLSIDLPFFLLRTLLELARTQSQRERAEQNAIIFASV-NH2; N-terminus assumed) | 3.72 | 486 | – | – |
| CC[C@H](C)[C@H](N)C(=O)N[C@H](C(=O)N[C@@H](CC(C)C)C(=O)N[C@@H](CO)C(=O)N[C@@H](CC(C)C)C(=O)N[C@@H](CC(=O)O)C(=O)N[C@H](C(=O)N1CCC[C@H]1C(=O)N[C@H](C(=O)NCC(=O)N[C@@H](CC(C)C)C(=O)N[C@@H](CC(C)C)C(=O)N[C@@H](CCC(N)=O)C(=O)N[C@H](C(=O)N[C@@H](CC(C)C)C(=O)N[C@@H](CC(C)C)C(=O)N[C@@H](CCC(=O)O)C(=O)N[C@@H](CCC(N)=O)C(=O)N[C@@H](C)C(=O)N[C@@H](CCCCN)C(=O)N[C@@H](C)C(=O)N[C@@H](CCCNC(=N)N)C(=O)N[C@@H](C)C(=O)N[C@@H](C)C(=O)N[C@@H](CCCNC(=N)N)C(=O)N[C@@H](CCC(=O)O)C(=O)N[C@@H](CCC(N)=O)C(=O)N[C@@H](C)C(=O)N[C@H](C(=O)N[C@H](C(=O)N[C@@H](CC(N)=O)C(=O)N[C@@H](C)C(=O)N[C@@H](CCCNC(=N)N)C(=O)N[C@H](C(=O)N[C@@H](CC(C)C)C(=O)N[C@@H](C)C(=O)N[C@@H](CCCNC(=N)N)C(=O)N[C@H](C(N)=O)C(C)C)[C@@H](C)CC)[C@@H](C)O)[C@@H](C)O)[C@@H](C)CC)[C@@H](C)CC)C(C)C)C(C)C [compound 127] (H-IVLSLDVPIGLLQILLEQAKARAAREQATTNARILARV-NH2; N-terminus assumed) | 7.79 | – | (94) % | (6) % |
| SQEPPISLDLPTGLLREVLEMTKADQLAQQAHSNRKLLDIA-NH2 [compound 98] | ≥ 100 | ≥ 100 | – | – |
| SQEPPISLDLPIHLLREVLEMTKADQLAQQAHSNRKLLDIA-NH2 [compound 94] | ≥ 100 | ≥ 100 | – | – |
| SQEPPISLDLPLQLLREVLEMTKADQLAQQAHSNRKLLDIA-NH2 [compound 95] | ≥ 100 | ≥ 100 | – | – |
| CC[C@H](C)[C@H](NC(=O)[C@H](C)NC(=O)[C@H](CC(N)=O)NC(=O)[C@H](CCC(N)=O)NC(=O)[C@H](CCC(=O)O)NC(=O)[C@H](C)NC(=O)[C@H](CCCNC(=N)N)NC(=O)[C@H](CCC(=O)O)NC(=O)[C@H](CCCNC(=N)N)NC(=O)[C@H](CCC(N)=O)NC(=O)[C@H](CO)NC(=O)[C@H](CCC(N)=O)NC(=O)[C@@H](NC(=O)[C@H](CCCNC(=N)N)NC(=O)[C@H](C)NC(=O)[C@H](CC(C)C)NC(=O)[C@H](CCC(=O)O)NC(=O)[C@H](CC(C)C)NC(=O)[C@H](CC(C)C)NC(=O)[C@@H](NC(=O)[C@H](CCCNC(=N)N)NC(=O)[C@H](CC(C)C)NC(=O)[C@H](CC(C)C)NC(=O)[C@H](Cc1ccc(O)cc1)NC(=O)[C@H](CCC(N)=O)NC(=O)[C@@H]1CCCN1C(=O)[C@H](CC(C)C)NC(=O)[C@H](CC(=O)O)NC(=O)[C@@H](NC(=O)[C@H](CO)NC(=O)[C@H](CC(C)C)NC(=O)[C@H](CO)NC(=O)[C@@H]1CCCN1C(=O)[C@H](CC(N)=O)NC(=O)[C@@H](N)CC(=O)O)[C@@H](C)CC)[C@@H](C)O)[C@@H](C)O)C(=O)N[C@H](C(=O)N[C@@H](Cc1ccccc1)C(=O)N[C@@H](C)C(=O)N[C@@H](CO)C(=O)N[C@H](C(N)=O)C(C)C)[C@@H](C)CC [compound 339] (H-DNPSLSIDLPQYLLRTLLELARTQSQRERAEQNAIIFASV-NH2) | ≥ 100 | ≥ 1000 | – | – |
| CC[C@H](C)[C@H](NC(=O)[C@H](C)NC(=O)[C@H](CC(N)=O)NC(=O)[C@H](CCC(N)=O)NC(=O)[C@H](CCC(=O)O)NC(=O)[C@H](C)NC(=O)[C@H](CCCNC(=N)N)NC(=O)[C@H](CCC(=O)O)NC(=O)[C@H](CCCNC(=N)N)NC(=O)[C@H](CCC(N)=O)NC(=O)[C@H](CO)NC(=O)[C@H](CCC(N)=O)NC(=O)[C@@H](NC(=O)[C@H](CCCCN)NC(=O)[C@H](CCC(=O)O)NC(=O)[C@H](CC(C)C)NC(=O)[C@H](CCC(=O)O)NC(=O)[C@H](CC(C)C)NC(=O)[C@H](CC(C)C)NC(=O)[C@@H](NC(=O)[C@H](CCCNC(=N)N)NC(=O)[C@H](CC(C)C)NC(=O)[C@H](CC(C)C)NC(=O)[C@H](CCC(N)=O)NC(=O)[C@H](CC(C)C)NC(=O)[C@@H]1CCCN1C(=O)[C@H](CC(C)C)NC(=O)[C@H](CC(=O)O)NC(=O)[C@@H](NC(=O)[C@H](CO)NC(=O)[C@H](CC(C)C)NC(=O)[C@H](CO)NC(=O)[C@@H]1CCCN1C(=O)[C@H](CC(N)=O)NC(=O)[C@@H](N)CC(=O)O)[C@@H](C)CC)[C@@H](C)O)[C@@H](C)O)C(=O)N[C@H](C(=O)N[C@@H](Cc1ccccc1)C(=O)N[C@@H](C)C(=O)N[C@@H](CO)C(=O)N[C@H](C(N)=O)C(C)C)[C@@H](C)CC [compound 342] (H-DNPSLSIDLPLQLLRTLLELEKTQSQRERAEQNAIIFASV-NH2; N-terminus assumed) | 20.3 | ≥ 1000 | – | – |
| NDDPPISIDLPLQLLRNMIEMARIENEREQAGLNAKYLAEV-NH2 [compound 270] | ≥ 100 | ≥ 1000 | – | – |
| SQEPPISLDLPIQLLREVLEMTKADQLAQQAHSNRKLLDIA-NH2 [compound 100] | ≥ 100 | ≥ 100 | – | – |
| SQEPPISLDLPFQLLREVLEMTKADQLAQQAHSNRKLLDIA-NH2 [compound 91] | ≥ 100 | ≥ 100 | – | – |
| NDDPPISIDLPLILLRNMIEMARIENEREQAGLNAKYLAEV-NH2 [compound 269] | ≥ 100 | ≥ 1000 | – | – |
